US6896895B2, “Carotenoid esters, carotenoid-enriched feeds, and methods of pigmenting foods and foodstuffs” (DSM IP Assets B.V., priority 2000, dated 2005)
Marks after values point to notes of the source that are not given here.

Assays:
[1] = Carotenoid ester content in plasma, back skin and abdominal fat of broilers (HPLC); assay type: in vivo, broiler chickens (Ross 308, Ross 508); settings: average over doses, Table 4
Method: (§1) Pigmentation efficacy was assessed in egg yolk, in the back skin of the broiler carcass, and in broiler shanks by reflectance colorimetry accompanied by visual scoring (Roche Colour Fan). The deposition of the ethyl-β-apo-8′-carotenoate (control) and the other carotenoid esters was determined in egg yolk and in the broiler back skin. In addition, the carotenoid levels in plasma and abdominal fat were measured.
(§2) The trials were carried out using chickens of the type Ross 308 (trials MC-24/98 and MC-02/99) and Ross 508 (trials MC-11/99, MC-16/99, MC-24/99, and MC-03/00) (Couvir de la Bohardière, F-49290 Saint Laurent de la Plaine). One-day old broiler chickens, separated by sex, were divided by weight into experimental groups of ten animals each and reared in floor pens littered with wood shavings. The chickens were fed a low carotenoid basal grower diet until day 22 (trials MC-24/98, MC-02/99, and MC-11/99) or until day 15 (trials MC-16/99, MC-24/99, and MC-03/00). The low carotenoid basal grower diet contained less than 2 mg total xanthophylls per kg of feed, and its composition is described in Table 2. For the subsequent experimental period of three weeks, the birds received the basal diet supplemented with an appropriate pigment. The feed was given in the form of crumbled pellets during the first week and as pellets thereafter. The animals had unrestricted access to feed and water. A given treatment involved one group of male and one group of female chickens. Each group of chickens was weighed at day 22 (trials MC-24/98, MC-02/99, and MC-11/99) or day 15 (trials MC-16/99, MC-24/99, and MC-03/00) and on day 43. On day 42, five chickens per group were selected at random, labelled, and blood samples were taken from the jugular vein. At the end of the experiment (day 44) the animals were slaughtered in a commercial slaughterhouse (Freyburger, Dannemarie, France). The following day, the color of the skin (hind back of carcasses) and the shanks of the labelled chicken were measured by reflectance colorimetry (Minolta CR 200 apparatus, CIE-Lab system). Samples of the dorsal skin and abdominal fat were obtained, pooled for each experimental group, and the carotenoid concentration was determined. The concentration of carotenoids in feed, plasma, skin, and abdominal fat was determined by standard procedures as described after Tables 1 and 2.
The content of the various carotenoid esters in feed was determined according to the method of Schierle, et al. (J. Schierle , N. Faccin, V. Riegert, Analytical Methods for Vitamins and Carotenoids in Feed, Revised supplement: Determination of Stabilized Apocarotenoic Ester and Canthaxanthin in Premixes and Feeds, Roche publication no. 50771 (1995), publicly available from. F. Hoffmann-La Roche Ltd., CH-4070 Basel). This method was modified in that the mobile phase of the normal-phase HPLC contained 0.5% instead of 7% acetone in n-hexane, improving the separation of the E/Z-isomers of the carotenoid esters. Peaks were related to all-E- and Z-isomers of the various carotenoid esters by chromatography of heat-isomerized solutions of the respective reference substances in n-hexane. The HPLC system was calibrated with the all-E-isomer of ethyl β-apo-8′-carotenoate. The response factor of the various derivatives was deduced from that of ethyl β-apo-8′-carotenoate taking into account the respective molecular weight. The content of the Z-isomer fractions was calculated based on the response of the all-E-isomer and using a correction factor of 1.4 to account for the lower specific absorbance of the Z-isomers.
(§3) The HPLC-system for in-feed analysis was also used to quantify the carotenoid esters in egg yolk, broiler tissues, and broiler plasma, but the extraction procedure was different for the various matrices.
For plasma extraction, 1.0 g of the well-mixed plasma sample was introduced into a 10 ml test tube with 1.0 ml of demineralized water and 4.0 ml of ethanol, and the contents mixed on a Vortex shaker. […]

[2] = tested on: skin and shanks of broilers; assay: Reflectance colorimetry and visual classification of skin and shanks of broilers; assay type: in vivo, broiler chickens (Ross 308, Ross 508); parameters: key to Shanks Visual Classification / Skin Visual Classification: −; (+); +; ++ = good color; o = orange; settings: dry carcasses, average over doses, Table 6
Method: as §1, §2
The color of broiler skin and shanks was measured using a tristimulus Minolta CR-300 Chromameter with diffuse D65-illumination and a 0° viewing angle. The color of the skin was read at three different points on the back of the dry broiler carcasses and average values of the triple measurements were recorded. The color of shanks was measured using single measurements at the ball between the toes.
(§4) The color data were expressed as CIE L*a*b*-values including h*(hue) and C* (chroma). The values given in the tables per treatment and trial represent averages of color measurements of four egg yolk pools, ten broiler back skins, or ten broiler shanks (5 males and 5 females).

[3] = Carotenoid ester content and deposition rate in egg yolk of laying hens (HPLC); assay type: in vivo, laying hens (ISA Brown); settings: egg yolk; for Deposition Rate % of Controls: Table 10
Method: as §1
Each year in February the pigmentation trials are started with a new flock of layers.
(§5) Preceding the trials the hens were fed a low carotenoid basal diet (produced at the CRNA) without carotenoid supplementation for at least 28 days. During the trials, the control group received the low carotenoid basal diet containing less than 2 mg total xanthophylls per kg of feed. The other animals were fed this diet supplemented with the appropriate pigments for three weeks. The diet was given to the animals ad libitum in mash form. The hens had free access to tap water.
Peaks were related to all-E- and Z-isomers of the various carotenoid esters by chromatography of heat-isomerized solutions of the respective reference substances in n-hexane. The HPLC system was calibrated with the all-E-isomer of ethyl β-apo-8′-carotenoate. The response factor of the various derivatives was deduced from that of ethyl β-apo-8′-carotenoate taking into account the respective molecular weight. The content of the Z-isomer fractions was calculated based on the response of the all-E-isomer and using a correction factor of 1.4 to account for the lower specific absorbance of the Z-isomers.
as §3
For the extraction of egg yolk, 10 g of pooled and homogenised yolk were mixed with 10 ml of demineralized water using a dispersion instrument (Polytron). 1.0 g of diluted egg yolk was introduced into a 10 ml test tube with 1.0 ml of demineralized water and 2.0 ml of ethanol, and the contents were mixed on a Vortex shaker. After addition of 4.0 ml of n-hexane, the mixture was further treated as described for plasma.

egg yolk = assay: Egg yolk colour: reflectance colorimetry and Roche Yolk Colour Fan; assay type: in vivo, laying hens (ISA Brown); settings: egg yolk, laying hens
Method: as §1
The trials were carried out following the standard experimental design used for egg yolk pigmentation trials at the Roche Research Center for Animal Nutrition (CRNA, F-68305 Village-Neuf, France). Each year in February the pigmentation trials are started with a new flock of layers. At the beginning of the trials the age of the laying hens (192 birds, type ‘ISA Brown’) were as follows:
as §5, with “water. Beside the unsupplemented control treatment, treatments were carried out involving the provision of supplemented feed, the results of these treatments being presented in Tables 7-9.” for “water.”
Egg yolk color was assessed as described by Steinberg, et al. (Arch. Geflügelk 64 (4), 180-187 (2000)). The yolks were manually separated from the whites of the eggs. The isolated yolks of three to six eggs were combined, weighed, and stirred with a glass rod until the color appeared homogeneous. The color hue was visually scored using the Roche Yolk Colour Fan (RYCF, version 1993). An aliquot of the pooled egg yolks was transferred into a glass cuvette yielding an approximately 2 cm thick layer. The color was then measured by means of a Dr. Lange Xeno Color LS 100 spectro-colorimeter with diffuse D65-illumination and a 8° viewing angle.
as §4

[4] = trial H-18/99, 5.0 mg/kg feed, Table 8
[5] = trial H-18/99, 5.0 mg/kg feed, Table 10
[6] = trial H-12/99, 2, 4, 8 mg/kg feed, Table 8
[7] = trial H-12/99, 2, 4, 8 mg/kg feed, Table 10
[8] = trials H-18, 22/99, 1, 2, 4, 5, 8 mg/kg feed, Table 8
[9] = trials H-18, 22/99, 1, 2, 4, 5, 8 mg/kg feed, Table 10
[10] = control, n = 16, 1.0-8.0 mg/kg feed

Structure (SMILES)	Analytical Content as Equivalent of Ethyl β-apo-8′-carotenoate in % of control Fat [1] [%]	Analytical Content as Equivalent of Ethyl β-apo-8′-carotenoate in % of control Plasma [1] [%]	Analytical Content as Equivalent of Ethyl β-apo-8′-carotenoate in % of control Skin [1] [%]	Shanks Chroma C*ab % of Controls [2] [%]	Shanks Color Hue h*ab % of Controls [2] [%]	Shanks Visual Classification [2]	Skin Chroma C*ab % of Controls [2] [%]	Skin Color Hue h*ab % of Controls [2] [%]	Skin Visual Classification [2]	Deposition Rate Target Values % of Controls [3, 4] [%]	Ethyl β-apo-8′-carotenoate Equivalents % of Controls [3, 4] [%]	Deposition Rate % of Controls ([3]; trial H-18/99, 5.0 mg/kg feed) [%]	Color Fan Value % of Controls (egg yolk; [4]) [%]	Chroma C*ab % of Controls (egg yolk; [5]) [%]	Color Fan Value % of Controls (egg yolk; [5]) [%]	Color Hue h*ab % of Controls (egg yolk; [5]) [%]	other results
COC(=O)C(C)=CC=CC(C)=CC=CC=C(C)C=CC=C(C)C=CC1=C(C)CCCC1(C)C [(1), methyl beta-apo-8′-carotenoate]	85	88	87	97	101	(+)	97	100	(+)	99	95	99	130	104	130	99	–
CCCOC(=O)C(C)=CC=CC(C)=CC=CC=C(C)C=CC=C(C)C=CC1=C(C)CCCC1(C)C [(2), n-propyl beta-apo-8′-carotenoate]	39	68	45	108	99	(+)	93	97	(+)	–	–	–	–	–	–	–	Deposition Rate Target Values % of Controls [3, 6]: 77%; Ethyl β-apo-8′-carotenoate Equivalents % of Controls [3, 6]: 73%; Deposition Rate % of Controls ([3]; trial H-12/99, 2, 4, 8 mg/kg feed): 77%; Color Fan Value % of Controls (egg yolk; [6]): 110%; Chroma C*ab % of Controls (egg yolk; [7]): 95%; Color Fan Value % of Controls (egg yolk; [7]): 110%; Color Hue h*ab % of Controls (egg yolk; [7]): 101%
CC(C=CC=C(C)C=CC1=C(C)CCCC1(C)C)=CC=CC=C(C)C=CC=C(C)C(=O)OCC(C)C [(4), isobutyl beta-apo-8′-carotenoate]	–	58	–	72	105	(+)	84	98	(+)	83	74	83	116	104	116	101	–
CCC(C)OC(=O)C(C)=CC=CC(C)=CC=CC=C(C)C=CC=C(C)C=CC1=C(C)CCCC1(C)C (stereo not drawn) [(5), sec. butyl beta-apo-8′-carotenoate]	53	94	74	100	101	+	100	101	+	–	–	–	–	–	–	–	Deposition Rate Target Values % of Controls [3, 8]: 97%; Ethyl β-apo-8′-carotenoate Equivalents % of Controls [3, 8]: 90%; Deposition Rate % of Controls ([3]; trials H-18, 22/99, 1, 2, 4, 5, 8 mg/kg feed, comparison within same trials): 84^1) %; Color Fan Value % of Controls (egg yolk; [8]): 88%; Chroma C*ab % of Controls (egg yolk; [9]): 103%; Color Hue h*ab % of Controls (egg yolk; [9]): 102%; Color Fan Value % of Controls (egg yolk; trials H-18, 22/99, 1, 2, 4, 5, 8 mg/kg feed, comparison within same trials, Table 10): 93^1) %
CCOC(=O)/C(C)=C/C=C/C(C)=C/C=C/C=C(C)/C=C/C=C(C)/C=C/C1=C(C)CCCC1(C)C [Ethyl β-apo-8′-carotenoate, ethyl beta-apo-8′-carotenoate, reference compound]	–	–	–	–	–	–	–	–	–	–	–	–	–	–	–	–	Deposition Rate Target Values % of Controls [3, 10]: 100%; Ethyl β-apo-8′-carotenoate Equivalents % of Controls [3, 10]: 100%; Color Fan Value % of Controls (egg yolk; [10]): 100%
